Source: ChEMBL document CHEMBL1126331, “Nor-mefloquine: Stereospecific synthesis and biological properties” (1992)

What was measured:
Mus musculus = assay: Compound was evaluated in vivo against Plasmodium berghei in mice (Mus musculus) after oral administration; format: functional
Rattus norvegicus = assay: Percent decrease in blood pressure in conscious hypertensive rats, at a dose of 100 mg; format: functional

Row | Compound | ED50 (Mus musculus) | Decrease (Rattus norvegicus)
1 | Cl.O[C@H](c1cc(C(F)(F)F)nc2c(C(F)(F)F)cccc12)[C@@H]1CCCN1 (single isomer, unassigned) | 1.8 mg/kg | 15%
2 | Cl.O[C@@H](c1cc(C(F)(F)F)nc2c(C(F)(F)F)cccc12)[C@H]1CCCCN1 [MEFLOQUINE HYDROCHLORIDE] | 1.8 mg/kg | 
